Molecular target: T1, T1R2/T1R3 taste receptor (Homo sapiens, UniProt Q7RTX0+Q8TE23)
T1 sequence (Q8TE23 20-839): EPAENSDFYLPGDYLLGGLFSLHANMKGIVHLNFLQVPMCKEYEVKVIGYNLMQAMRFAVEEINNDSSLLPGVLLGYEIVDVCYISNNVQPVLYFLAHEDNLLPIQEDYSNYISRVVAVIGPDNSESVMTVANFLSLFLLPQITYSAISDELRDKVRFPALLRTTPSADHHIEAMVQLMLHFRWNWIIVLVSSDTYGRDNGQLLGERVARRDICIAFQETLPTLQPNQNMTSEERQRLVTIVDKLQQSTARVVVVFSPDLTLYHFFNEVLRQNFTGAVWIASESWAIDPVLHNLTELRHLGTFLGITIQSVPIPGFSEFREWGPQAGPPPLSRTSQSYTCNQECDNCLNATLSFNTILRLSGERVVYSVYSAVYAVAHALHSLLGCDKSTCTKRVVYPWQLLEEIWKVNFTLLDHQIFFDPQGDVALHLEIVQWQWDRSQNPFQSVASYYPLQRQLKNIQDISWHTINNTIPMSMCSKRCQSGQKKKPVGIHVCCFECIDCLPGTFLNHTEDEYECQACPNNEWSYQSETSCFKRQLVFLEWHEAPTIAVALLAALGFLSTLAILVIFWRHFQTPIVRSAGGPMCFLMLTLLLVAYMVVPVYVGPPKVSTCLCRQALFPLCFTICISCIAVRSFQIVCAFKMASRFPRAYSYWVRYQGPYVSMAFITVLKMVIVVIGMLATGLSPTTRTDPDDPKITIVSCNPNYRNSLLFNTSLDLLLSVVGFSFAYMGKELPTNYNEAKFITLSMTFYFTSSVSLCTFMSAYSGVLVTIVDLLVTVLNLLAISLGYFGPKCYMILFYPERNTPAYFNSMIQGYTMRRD
T1 sequence (Q7RTX0 21-852): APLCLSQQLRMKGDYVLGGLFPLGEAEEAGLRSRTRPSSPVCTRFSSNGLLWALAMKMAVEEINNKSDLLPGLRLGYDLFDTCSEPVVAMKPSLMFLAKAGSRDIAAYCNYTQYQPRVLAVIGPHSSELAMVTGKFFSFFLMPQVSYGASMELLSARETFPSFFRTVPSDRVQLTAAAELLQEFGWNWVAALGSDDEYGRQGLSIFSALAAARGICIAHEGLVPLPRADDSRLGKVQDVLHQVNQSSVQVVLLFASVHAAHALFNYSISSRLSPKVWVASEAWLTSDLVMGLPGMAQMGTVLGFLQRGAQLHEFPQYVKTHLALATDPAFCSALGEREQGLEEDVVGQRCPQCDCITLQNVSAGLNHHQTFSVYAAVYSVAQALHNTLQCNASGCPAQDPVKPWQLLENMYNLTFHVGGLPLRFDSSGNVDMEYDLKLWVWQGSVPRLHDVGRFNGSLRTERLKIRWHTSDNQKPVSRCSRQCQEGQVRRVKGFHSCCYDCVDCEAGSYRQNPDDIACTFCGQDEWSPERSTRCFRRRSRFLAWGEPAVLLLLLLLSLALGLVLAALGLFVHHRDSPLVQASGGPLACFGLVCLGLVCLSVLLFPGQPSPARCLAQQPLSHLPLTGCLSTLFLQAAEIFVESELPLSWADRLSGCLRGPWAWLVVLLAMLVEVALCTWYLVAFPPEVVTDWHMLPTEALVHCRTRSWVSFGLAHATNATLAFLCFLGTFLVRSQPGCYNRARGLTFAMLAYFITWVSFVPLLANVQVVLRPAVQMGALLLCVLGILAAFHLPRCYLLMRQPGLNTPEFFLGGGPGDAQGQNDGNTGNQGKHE
Assay: Receptor-based assay: sweetener EC50 enhancement ratio with and without test compound
Format: cell-based
Conditions: for Sucrose Enhancement EC50 Ratio: sweetener sucrose; for Sucralose Enhancement EC50 Ratio: sweetener sucralose; for Fructose Enhancement EC50 Ratio: sweetener fructose
Protocol: Potencies (EC50 values) for the sweeteners sucrose, sucralose, and fructose were measured against the T1R2/T1R3 taste receptor. EC50 was determined using the sweetener alone and in the presence of 1 μM, 3 μM, 10 μM, or 50 μM of test compound. EC50 ratios were calculated by the ratio of potency with and without the test compound. An “A” value indicates an enhancement ratio of greater than 1 and less than 10. A “B” value indicates an enhancement ratio from 10 to 20. A “C” value indicates an enhancement ratio greater than 20.

Row | Sucralose Enhancement EC50 Ratio (3 μM test compound) | Sucralose Enhancement EC50 Ratio (10 μM test compound) | Sucrose Enhancement EC50 Ratio (10 μM test compound) | Structure (SMILES) | Sucrose Enhancement EC50 Ratio (1 μM test compound) | Sucrose Enhancement EC50 Ratio (3 μM test compound) | Fructose Enhancement EC50 Ratio (10 μM test compound) | Fructose Enhancement EC50 Ratio (50 μM test compound)
1 | B (an enhancement ratio from 10 to 20) | B (an enhancement ratio from 10 to 20) | B (an enhancement ratio from 10 to 20) | CCc1cnc(N[C@H]2CC[C@H](Oc3cccc4nc(C)c(C(=O)O)c(N)c34)CC2)nc1 [Compound 711] | A (an enhancement ratio of greater than 1 and less than 10) | A (an enhancement ratio of greater than 1 and less than 10) | A (an enhancement ratio of greater than 1 and less than 10) | A (an enhancement ratio of greater than 1 and less than 10)
2 | C (an enhancement ratio greater than 20) | C (an enhancement ratio greater than 20) | C (an enhancement ratio greater than 20) | Cc1ccnc(N[C@H]2CC[C@H](Oc3cccc4nc(C)c(C(=O)O)c(N)c34)CC2)n1 [Compound 708] | A (an enhancement ratio of greater than 1 and less than 10) | C (an enhancement ratio greater than 20) | A (an enhancement ratio of greater than 1 and less than 10) | 
3 |  | C (an enhancement ratio greater than 20) | C (an enhancement ratio greater than 20) | CCOCC(=O)NC[C@H]1CC[C@H](Oc2cccc3nc(C)c(C(=O)O)c(N)c23)CC1 [Compound 603] | A (an enhancement ratio of greater than 1 and less than 10) | C (an enhancement ratio greater than 20) |  | 
4 |  |  | C (an enhancement ratio greater than 20) | Cc1nc2cccc(O[C@H]3CC[C@H](CN)CC3)c2c(N)c1C(=O)O.Cl [Compound 602] | A (an enhancement ratio of greater than 1 and less than 10) | A (an enhancement ratio of greater than 1 and less than 10) | A (an enhancement ratio of greater than 1 and less than 10) | 
5 |  |  | C (an enhancement ratio greater than 20) | Cc1nc2cccc(O[C@H]3CC[C@H](NC(=O)COCCO)CC3)c2c(N)c1C(=O)O [Compound 334] | A (an enhancement ratio of greater than 1 and less than 10) | A (an enhancement ratio of greater than 1 and less than 10) | A (an enhancement ratio of greater than 1 and less than 10) | 

More lines, now with the values behind:

Row | Structure (SMILES) | Sucralose Enhancement EC50 Ratio (3 μM test compound) | Sucralose Enhancement EC50 Ratio (10 μM test compound) | Sucrose Enhancement EC50 Ratio (10 μM test compound) | Sucrose Enhancement EC50 Ratio (1 μM test compound) | Sucrose Enhancement EC50 Ratio (3 μM test compound) | Fructose Enhancement EC50 Ratio (10 μM test compound) | Fructose Enhancement EC50 Ratio (50 μM test compound)
6 | Cc1nc2cccc(O[C@H]3CC[C@@H](C)CC3)c2c(N)c1C(=O)O [Compound 102] |  |  | B (an enhancement ratio from 10 to 20) | A (an enhancement ratio of greater than 1 and less than 10) | A (an enhancement ratio of greater than 1 and less than 10) |  | 
7 | Cc1nc2cccc(O[C@H]3CC[C@H](NC(=O)CO)CC3)c2c(N)c1C(=O)O [Compound 303] |  | A (an enhancement ratio of greater than 1 and less than 10) | B (an enhancement ratio from 10 to 20) | A (an enhancement ratio of greater than 1 and less than 10) | A (an enhancement ratio of greater than 1 and less than 10) |  | 
8 | Cc1nc2cccc(O[C@H]3CC[C@H](NC(=O)COC4CCOCC4)CC3)c2c(N)c1C(=O)O [Compound 314] | B (an enhancement ratio from 10 to 20) |  |  | B (an enhancement ratio from 10 to 20) |  |  | 
9 | CCOC(C)(C)C(=O)N[C@H]1CC[C@H](Oc2cccc3nc(C)c(C(=O)O)c(N)c23)CC1 [Compound 316] |  |  | B (an enhancement ratio from 10 to 20) | A (an enhancement ratio of greater than 1 and less than 10) | A (an enhancement ratio of greater than 1 and less than 10) |  | 
10 | CCc1nc2cccc(O[C@H]3CC[C@@H](C)CC3)c2c(N)c1C(=O)O [Compound 202] |  |  | A (an enhancement ratio of greater than 1 and less than 10) | A (an enhancement ratio of greater than 1 and less than 10) | A (an enhancement ratio of greater than 1 and less than 10) |  | 
11 | CN[C@H](C(=O)N[C@H]1CC[C@H](Oc2cccc3nc(C)c(C(=O)O)c(N)c23)CC1)C(C)C [Compound 503] |  | B (an enhancement ratio from 10 to 20) | A (an enhancement ratio of greater than 1 and less than 10) | A (an enhancement ratio of greater than 1 and less than 10) | A (an enhancement ratio of greater than 1 and less than 10) | A (an enhancement ratio of greater than 1 and less than 10) | A (an enhancement ratio of greater than 1 and less than 10)
12 | Cc1nc2cccc(O[C@H]3CC[C@H](NC(=O)Cn4ccnc4)CC3)c2c(N)c1C(=O)O [Compound 325] | A (an enhancement ratio of greater than 1 and less than 10) |  |  | A (an enhancement ratio of greater than 1 and less than 10) | B (an enhancement ratio from 10 to 20) |  | 
13 | CCC(CC)OCC(=O)N[C@H]1CC[C@H](Oc2cccc3nc(C)c(C(=O)O)c(N)c23)CC1 [Compound 341] | A (an enhancement ratio of greater than 1 and less than 10) |  |  | A (an enhancement ratio of greater than 1 and less than 10) | B (an enhancement ratio from 10 to 20) |  | 
14 | Cc1nc2cccc(O[C@H]3CC[C@H](NC(=O)[C@@H]4CCCN4)CC3)c2c(N)c1C(=O)O [Compound 504] |  |  |  | A (an enhancement ratio of greater than 1 and less than 10) | A (an enhancement ratio of greater than 1 and less than 10) |  | 
15 | CCCc1nc2cccc(O[C@H]3CC[C@H](C)CC3)c2c(N)c1C(=O)O [Compound 207] |  |  | A (an enhancement ratio of greater than 1 and less than 10) | A (an enhancement ratio of greater than 1 and less than 10) | A (an enhancement ratio of greater than 1 and less than 10) |  | 
16 | CCc1nc2cccc(O[C@H]3CC[C@H](COC)CC3)c2c(N)c1C(=O)O [Compound 205] |  | B (an enhancement ratio from 10 to 20) | B (an enhancement ratio from 10 to 20) | A (an enhancement ratio of greater than 1 and less than 10) | B (an enhancement ratio from 10 to 20) |  | 
17 | CN[C@@H](CO)C(=O)N[C@H]1CC[C@H](Oc2cccc3nc(C)c(C(=O)O)c(N)c23)CC1 [Compound 502] |  | A (an enhancement ratio of greater than 1 and less than 10) | A (an enhancement ratio of greater than 1 and less than 10) | A (an enhancement ratio of greater than 1 and less than 10) | A (an enhancement ratio of greater than 1 and less than 10) | A (an enhancement ratio of greater than 1 and less than 10) | A (an enhancement ratio of greater than 1 and less than 10)
